The values below come from publication PMC10600239, “Selective MCL-1 inhibitor ABBV-467 is efficacious in tumor models but is associated with cardiac troponin increases in patients” (Communications Medicine, 2023).

The data set concerns AMO-1 xenografts. Briefly: AMO-1 xenograft efficacy (tumor volume, body weight). Format: in vivo, mouse. The following applies: SCID-beige mice bearing AMO-1 (DSMZ) flank xenografts; IV, Q7Dx2, 6.25-25 mg/kg; 5% DMSO, 10% cremophor EL, 85% D5W. How it is done:
All animal studies were conducted in accordance with the guidelines approved by the Institutional Animal Care and Use Committees of AbbVie. The research protocol was approved by In Vivo Pharmacology at AbbVie prior to study initiation but was not publicly registered or disclosed. Female C.B-17 SCID-beige mice (AMO-1, OPM-2, NCI-H929, and OCI-AML2 xenografts) and female NSG mice (MV4-11-Red.Fluc systemic) were purchased from Charles River Laboratories (Wilmington, MA). Animals were housed in a light cycle-controlled room with HEPA filtration at 22 °C. Animals had nesting and climbing cage topper as the primary environmental enrichment. Animals were inoculated subcutaneously in the right flank with 5 × 10^6 (AMO-1, OPM-2, NCI-H929, and OCI-AML2) or intravenous (IV) with 5 × 10^6 (MV4-11-Red.Fluc). The inoculation volume (0.2 mL) comprised a 50:50 mixture of cells in growth media and Matrigel (BD Biosciences) for subcutaneous injections and 100% phosphate-buffered saline for IV administration. All cell lines used in this publication were authenticated using IDEXX for STR profiling as well as their IMPACT and human IMPACT panels for pathogen screening. Electronic calipers were used to measure the length and width of each tumor 2 to 3 times per week. Tumor volume was estimated by applying the following equation: volume = length × width^2/2. All groups remained blinded during measurements and dosing; only veterinary staff were aware of group identity. When tumors reached approximately 200 mm^3, mice were randomized by match and distributed into treatment and control groups. All xenograft trials were conducted using 5 to 10 mice per group, and all mice were ear tagged and monitored individually throughout the studies. […] Tumor burden in the systemic MV4-11-Red.Fluc experiment was measured using an IVIS® spectrum from PerkinElmer by taking the total photon flux of the entire dorsal side of an individual mouse. […] A background control mouse that was tumor naive but received D-Luciferin was placed in the upper left corner of each image. The total flux from this animal was subtracted from the total flux of each animal present in the image.
For in vivo studies, maximal tumor growth inhibition (TGI) was calculated as the greatest treatment response using the following equation: Maximal TGI = (1 − mean tumor volume of the treated group/mean tumor volume of the vehicle control group) × 100. The tumor growth delay (TGD) percentage was determined as the percentage increase of the median time period for the treatment group to reach an arbitrary tumor volume of 1000 mm^3 relative to the vehicle control group. […] A power analysis was conducted using historical data to determine the number of animals required to yield significance of 0.05 at a 30% difference. […] Data from experiments in vivo were analyzed using the student’s t-test for TGI values and the Mann–Whitney U test for TGD using Excel and GraphPad Prism. Fisher’s exact test was used to probe significance of differences in response frequency.

SMILES strings stand for the structures.

As to `Cc1c(Cl)c2c(Cl)c(C)c1-c1c(-c3ccc(F)cc3)sc3ncnc(c13)O[C@@H](C(=O)O)Cc1cc(ccc1OCc1ccnc(-c3ccc(OC[C@H]4COCCO4)cc3)n1)OC[C@@H](CN1CCN(C)CC1)O2` [Compound A-1747745], the “Results: toxicity following iv injection” value is “A-1747745 and A-1746463 showed lethal toxicity due to drug precipitate folowing iv injection”.
